The record followed here is ChEMBL document CHEMBL1201862, “PubChem BioAssay data set” (2004).

Experiment in all cases: NCI-60 cell line screen, 48 h
The subject of experiment [1] is OVCAR-5.
For experiment [2], the system named is MOLT-4.
Experiment [3] concerns IGROV-1.
Experiment [4] has as its system BT-549.
For experiment [5], the system named is NCI-H226.
For experiment [6], the system named is NCI-H23.
Experiment [7] deals with MDA-MB-435.
Experiment [8] deals with UACC-257.
Experiment [9] relates to A549.
Experiment [10] has as its system PC-3.
The test system of experiment [11] is HCT-15.
For experiment [12], the system named is NCI-H460.
In experiment [13] the test system is SR.
The subject of experiment [14] is DU-145.
Experiment [15] relates to OVCAR-4.
The subject of experiment [16] is MDA-N.
Experiment [17] deals with U-251.
Experiment [18] has as its system MCF7.
The subject of experiment [19] is SW-620.
Experiment [20] deals with HOP-92.

Structures are written as SMILES.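 Test compounds were applied to cells in 96-well plates for 48 hours at 5 doses. GI50 is the concentration that inhibits growth by half.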 Calls of active or inactive are those of the source. Rule as the data show it: active = GI50 up to about 1.1 µM and inactive = higher.

Take `O=C1c2ccccc2C(=O)c2c1ccc(C(=O)O)c2-c1ccc2ccccc2c1`: the GI50 in experiment [1] is 22.5 µM (inactive); in [2] it was 19.1 µM (inactive); in [3], 13.7 µM (inactive); in experiment [4] it was 26.4 µM (inactive); in [5], 21.8 µM (inactive); in experiment [6] it was 18.6 µM (inactive). Also, the GI50 was 23.8 µM (inactive) in experiment [7]; 49.8 µM (inactive) in experiment [8]; 30.5 µM (inactive) in experiment [9]; 24.5 µM (inactive) in experiment [10]; 19.6 µM in experiment [11]; 30.1 µM (inactive) in [12]. In addition, the GI50 is 16.6 µM (inactive) in experiment [13]; 16.2 µM (inactive) in [14]; 30.8 µM (inactive) in experiment [15]; 26.5 µM (inactive) in [16]; 21.9 µM (inactive) in [17]; 3.42 µM (inactive) in experiment [18]. In addition, the GI50 in experiment [19] is 29.4 µM (inactive).
As to `N#Cc1c(N)c2c(c(-c3ccccc3)c1-c1ccccc1)C(=O)N(O)C2=O`, the GI50 was 63 µM (inactive) in [1]; 35.6 µM (inactive) in experiment [2]; 19.5 µM (inactive) in [3]; 42.2 µM (inactive) in experiment [4]; 18.8 µM (inactive) in [5]; 79.4 µM (inactive) in experiment [7]. Also, the GI50 was > 100 µM (inactive) in experiment [8]; 64.1 µM (inactive) in [20]; 31 µM (inactive) in experiment [9]; 14.1 µM (inactive) in experiment [10]; 70 µM in experiment [11]; 47.1 µM (inactive) in experiment [12]. Besides, the GI50 in experiment [13] was 62.7 µM (inactive); in [14] it was 39.4 µM (inactive); in experiment [15] it was 66.8 µM (inactive); in experiment [16], 82 µM (inactive); in experiment [17], 94.6 µM (inactive); in experiment [18], 46.1 µM (inactive). For the same molecule, the GI50 in [19] was 96.8 µM (inactive).
As to `COc1ccc(/C=N/NC(=O)O)cc1`, the GI50 in experiment [1], in experiment [2], in experiment [3], in [4], in experiment [6] and in experiment [7] was > 100 µM (inactive) in each case. The GI50 in experiment [8] was > 100 µM (inactive); in [9], > 100 µM (inactive); in experiment [10] it was > 100 µM (inactive); in [11], over 100 µM; in experiment [12], > 100 µM (inactive); in [13], > 100 µM (inactive). For the same molecule, the GI50 in [14], in experiment [15], in experiment [16], in experiment [17], in experiment [18] and in experiment [19] was > 100 µM (inactive) in each case.
For `O=C(O)c1ccccc1/C=N\N=C1NCCCCN1`, the GI50 in experiment [1], in [2], in experiment [3], in [4], in experiment [5] and in [6] was > 100 µM (inactive) in each case. Besides, the GI50 in experiment [7] was > 100 µM (inactive); in experiment [8], > 100 µM (inactive); in experiment [9] it was > 100 µM (inactive); in [10], > 100 µM (inactive); in experiment [11], over 100 µM; in experiment [12] it was > 100 µM (inactive). Also, the GI50 in experiment [13], in experiment [14], in experiment [15], in experiment [16], in [17] and in experiment [18] was > 100 µM (inactive) throughout. Moreover, the GI50 in experiment [19] is > 100 µM (inactive).
For the molecule `NC1CC(=O)c2c(Br)csc21` (centres undefined), the GI50 in experiment [1] is 63.7 µM (inactive); in experiment [2], 46.6 µM (inactive); in experiment [3], 33 µM (inactive); in [4] it was 33 µM (inactive); in [7], 21.2 µM (inactive); in experiment [8], 40.2 µM (inactive). For the same molecule, the GI50 in experiment [9] was > 100 µM (inactive); in [10], 39.3 µM (inactive); in experiment [11] it was 35.4 µM; in experiment [12], 41 µM (inactive); in [13], 46.6 µM (inactive); in experiment [14] it was > 100 µM (inactive). Besides, the GI50 in [16] was 12.5 µM (inactive); in experiment [17] it was 10 µM (inactive); in experiment [18], 49 µM (inactive); in experiment [19] it was 30.2 µM (inactive).
Regarding `CC12CC(=O)C3C(C(=O)C1)C32C` (centres undefined), the GI50 in experiment [1], in [2], in [3], in [4], in [5] and in experiment [6] was > 100 µM (inactive) each time. The GI50 in experiment [7] is > 100 µM (inactive); in [8], > 100 µM (inactive); in experiment [9], > 100 µM (inactive); in experiment [10], > 100 µM (inactive); in experiment [11] it was over 100 µM; in experiment [12], > 100 µM (inactive). Further, the GI50 in [13], in experiment [14], in experiment [15], in [16], in experiment [17] and in experiment [18] was > 100 µM (inactive) in each case. In experiment [19], the GI50 is > 100 µM (inactive).
For the molecule `CC1CC(=O)Nc2ccccc2N1C(=O)C1CC1` (centres undefined), the GI50 in experiment [1], in [2], in [3], in [4], in experiment [5] and in [6] was > 100 µM (inactive) each time. Also, the GI50 in experiment [7] was > 100 µM (inactive); in experiment [8], > 100 µM (inactive); in [20], 19.5 µM (inactive); in [9], > 100 µM (inactive); in experiment [10], > 100 µM (inactive); in experiment [11], over 100 µM. The GI50 in experiment [12], in experiment [14], in experiment [15], in experiment [16], in [17] and in [18] was > 100 µM (inactive) in each case. In addition, the GI50 in experiment [19] is > 100 µM (inactive).
On to `Fc1cccc(C2SCC3=Nc4ccccc4CN32)c1` (centres undefined), for which the GI50 in experiment [1] was 32.1 µM (inactive); in experiment [2], 37.8 µM (inactive); in experiment [4], 92.5 µM (inactive); in [6], 20.8 µM (inactive); in experiment [7], 33 µM (inactive); in experiment [8], 97.9 µM (inactive). For the same molecule, the GI50 was 84.1 µM (inactive) in [20]; 59.6 µM (inactive) in experiment [9]; 28.2 µM (inactive) in experiment [10]; 58.9 µM in experiment [11]; 37.9 µM (inactive) in experiment [12]; 38.6 µM (inactive) in experiment [13]. For the same molecule, the GI50 is 52.4 µM (inactive) in experiment [14]; 95.7 µM (inactive) in experiment [15]; 79.1 µM (inactive) in [16]; 58.2 µM (inactive) in [17]; 35.4 µM (inactive) in [18]; > 100 µM (inactive) in experiment [19].
With `Cc1cccc2c(N)c3cccc(C(=O)NCCN4CCOCC4)c3nc12`, the GI50 in experiment [1] was 0.627 µM (active); in experiment [2], 0.0278 µM (active); in experiment [3], 0.224 µM (active); in [4], 1.93 µM (inactive); in experiment [6] it was 0.33 µM (active); in experiment [7] it was 0.57 µM (active). For the same molecule, the GI50 was 0.912 µM (active) in [8]; 3.48 µM (inactive) in experiment [20]; 0.192 µM (active) in experiment [9]; 0.436 µM (active) in [10]; 0.461 µM in [11]; 0.605 µM (active) in experiment [12]. Besides, the GI50 in experiment [13] was 0.274 µM (active); in experiment [14], 0.482 µM (active); in experiment [15], 0.762 µM (active); in experiment [16], 0.6 µM (active); in experiment [17], 0.531 µM (active); in experiment [18], 0.265 µM (active). Further, the GI50 in [19] is 0.166 µM (active).
On to `C/C1=C/C2OC(=O)C3(C)C2C(CC2(C)OC1=CC2=O)OC3(O)C(C)C` (centres undefined), for which the GI50 in experiment [1] is 34.8 µM (inactive); in experiment [2], 29.4 µM (inactive); in [3], 35.3 µM (inactive); in [4], 5.2 µM (inactive); in [5] it was 33.5 µM (inactive); in [6], 15 µM (inactive). The GI50 in experiment [7] is 38.3 µM (inactive); in experiment [8] it was 26.9 µM (inactive); in experiment [9], > 56 µM (inactive); in experiment [10], 40.8 µM (inactive); in experiment [11], 20.3 µM; in experiment [12], 42.5 µM (inactive). Also, the GI50 was 22.6 µM (inactive) in experiment [13]; 59.8 µM (inactive) in [14]; 25.1 µM (inactive) in experiment [15]; 53.7 µM (inactive) in [16]; 23.9 µM (inactive) in experiment [17]; 43.7 µM (inactive) in experiment [18]. Moreover, the GI50 in experiment [19] is 23.7 µM (inactive).
Consider `C#Cc1cccc(N2C(=O)CCC2=O)c1`, for which the GI50 in [1] is 16.7 µM (inactive); in [2], 2.77 µM (inactive); in experiment [3], 21.5 µM (inactive); in experiment [4], > 10 µM (inactive); in experiment [5], 17.5 µM (inactive); in experiment [6] it was 14.7 µM (inactive). For the same molecule, the GI50 in experiment [7] was 17.3 µM (inactive); in experiment [8], 15.6 µM (inactive); in experiment [9], 21.4 µM (inactive); in [10], 15.2 µM (inactive); in experiment [11], 22.1 µM; in experiment [12], 27.5 µM (inactive). Also, the GI50 in experiment [13] was 1.74 µM (inactive); in experiment [14] it was 14.4 µM (inactive); in [15], 13.1 µM (inactive); in [16], 14.2 µM (inactive); in experiment [17], 1.67 µM (inactive); in experiment [18] it was 19.4 µM (inactive). Further, in experiment [19], the GI50 is 5.61 µM (inactive).
